Consider nine molecules from ChEMBL document CHEMBL5360672, “Identification of Novel Dual-Target Estrogen Receptor α Degraders with Tubulin Inhibitory Activity for the Treatment of Endocrine-Resistant Breast Cancer” (J Med Chem, 2023).

Activity calls are given as the source filed them. The calls are words filed in the database; no cut-off is given here.

The target of data set [1] is T1, Estrogen receptor (Homo sapiens) (UniProt P03372).
T1 sequence (whole entry): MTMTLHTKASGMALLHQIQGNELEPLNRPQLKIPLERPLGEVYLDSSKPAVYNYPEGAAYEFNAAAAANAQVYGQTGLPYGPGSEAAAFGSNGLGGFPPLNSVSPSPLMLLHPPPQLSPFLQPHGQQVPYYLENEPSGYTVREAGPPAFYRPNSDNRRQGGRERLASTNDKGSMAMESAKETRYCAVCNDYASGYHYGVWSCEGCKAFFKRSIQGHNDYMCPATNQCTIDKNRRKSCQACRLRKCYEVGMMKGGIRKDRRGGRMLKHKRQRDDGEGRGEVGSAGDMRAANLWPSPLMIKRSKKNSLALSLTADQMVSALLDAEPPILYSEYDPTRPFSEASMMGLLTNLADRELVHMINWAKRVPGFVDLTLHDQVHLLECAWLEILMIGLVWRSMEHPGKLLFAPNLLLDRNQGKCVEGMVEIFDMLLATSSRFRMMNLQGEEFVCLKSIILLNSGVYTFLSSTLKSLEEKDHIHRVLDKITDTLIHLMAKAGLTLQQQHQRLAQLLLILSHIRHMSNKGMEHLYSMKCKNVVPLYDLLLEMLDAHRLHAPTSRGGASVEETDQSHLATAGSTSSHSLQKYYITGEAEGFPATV
Briefly: Binding affinity to human ERalpha assessed as relative binding affinity incubated under vibration for 1 min followed by 2 hrs incubation under dark condition by fluorescence polarization assay relative to estradiol. The note with it: time 121.0 min.

Data set [2] has as its target Estrogen receptor beta (Homo sapiens) (UniProt Q92731). Nature of the data set: Binding affinity to human ERbeta assessed as relative binding affinity incubated under vibration for 1 min followed by 2 hrs incubation under dark condition by fluorescence polarization assay relative to estradiol. The note with it: time 121.0 min.
The species named for data set [3] is Homo sapiens. Nature of the data set: Selectivity ratio of relative binding affinity for human ERalpha to relative binding affinity to human ERbeta.
Data set [4] has as its system MCF7. Briefly: Antiproliferative activity against ERalpha positive human MCF7 cells assessed as inhibition of cell proliferation incubated for 72 hrs by CCK8 assay. In kind it is functional, cell-based. Particulars: MCF7, 72 h.
In data set [5] the test system is T47D. Nature of the data set: Antiproliferative activity against ERalpha positive human T47D cells assessed as inhibition of cell proliferation incubated for 72 hrs by CCK8 assay. In kind it is functional, cell-based. (In general: Tetrazolium assays rely on reduction of a dye to a coloured formazan, in cell work by metabolically active cells.)
A short description of data set [6]: Cytotoxicity against human MCF-10A cells assessed as inhibition of cell proliferation incubated for 72 hrs by CCK8 assay. The format is toxicity, cell-based.
The nature of data set [7]: Selectivity index, ratio of IC50 for cytotoxicity against human MCF-10A cells to IC50 for antiproliferative activity against human MCF7 cells. The format is toxicity, cell-based. The note with it: MCF-10A cells and MCF7 cells, read-out: Ratio IC50.
Data set [8] is described as follows: Antiproliferative activity against human Tamoxifen-resistant LCC2 cells assessed as inhibition of cell proliferation incubated for 72 hrs by CCK8 assay. In kind it is functional, cell-based.
Data set [9] relates to T47D. Nature of the data set: Antiproliferative activity against human T47D cells harboring ERalpha D538G mutant assessed as inhibition of cell proliferation incubated for 72 hrs by CCK8 assay. In kind it is functional, cell-based.
The subject of data set [10] is T47D. Briefly: Antiproliferative activity against human T47D cells harboring ERalpha Y537S mutant assessed as inhibition of cell proliferation incubated for 72 hrs by CCK8 assay. The format is functional, cell-based.
For data set [11], the target named is T1, Estrogen receptor (Homo sapiens). Nature of the data set: Induction of ERalpha degradation in human MCF7 cells at 5 uM incubated for 24 hrs by Western blot analysis relative to SeCN-OBHSA derivatives. In kind it is cell-based.

Sequence of Estrogen receptor beta (Homo sapiens) (Q92731 whole entry): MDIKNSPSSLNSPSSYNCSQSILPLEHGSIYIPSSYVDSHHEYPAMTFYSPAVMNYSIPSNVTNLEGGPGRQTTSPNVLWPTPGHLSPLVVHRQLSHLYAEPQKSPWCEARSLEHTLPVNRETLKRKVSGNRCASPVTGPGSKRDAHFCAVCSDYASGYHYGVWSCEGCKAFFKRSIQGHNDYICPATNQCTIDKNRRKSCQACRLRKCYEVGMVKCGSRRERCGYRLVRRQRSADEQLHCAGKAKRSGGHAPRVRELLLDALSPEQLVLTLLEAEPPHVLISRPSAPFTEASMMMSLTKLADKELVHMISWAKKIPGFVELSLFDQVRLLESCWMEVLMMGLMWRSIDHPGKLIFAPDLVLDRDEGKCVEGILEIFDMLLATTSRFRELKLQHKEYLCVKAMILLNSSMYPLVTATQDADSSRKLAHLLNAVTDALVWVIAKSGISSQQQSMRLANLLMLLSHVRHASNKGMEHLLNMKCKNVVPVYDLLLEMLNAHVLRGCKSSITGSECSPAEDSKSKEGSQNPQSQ

As usually defined, the IC50 is the concentration that inhibits the measured activity by half. Consider `CCN(c1cccc(OC)c1)S(=O)(=O)C1CC2OC1C(c1ccc(NC(=O)CCCCC[Se]C#N)cc1)=C2c1ccc(O)cc1` (stereo not given), for which the RBA in data set [1] is 0.51%; in [2], 0.2%. For the same molecule, in [3], the Selectivity ratio stood at 2.55. For the same molecule, the IC50 in data set [4] was found to be 2.81 µM; in data set [5], 14.2 µM; in [8], 13.3 µM; in [9], 19.8 µM; in data set [10], 9.25 µM. Also, the concentration for half-maximal inhibition (IC50) at 72 h in [6] was 91.5 µM. Further, in data set [7], the selectivity ratio was 32.5. Moreover, the outcome in data set [11] was Active.

For `CCN(c1ccc(F)cc1)S(=O)(=O)C1CC2OC1C(c1ccc(NC(=O)CCCCC[Se]C#N)cc1)=C2c1ccc(O)cc1` (stereo not given), the RBA is 11.2% in [1] and 0.07% in [2]. The Selectivity ratio in data set [3] stood at 159. Further, the half-maximal inhibitory concentration (IC50) in data set [4] was found to be 0.25 µM; in data set [5] it was 3.84 µM; in [8], 2.64 µM; in data set [9], 2.43 µM; in [10] it was 2.74 µM. Also, the IC50 at 72 h in [6] stood at 18.1 µM. The selectivity ratio in data set [7] was found to be 72.2. Further, the result in [11] was Active.

With `COc1ccc(N(CC(F)(F)F)S(=O)(=O)C2CC3OC2C(c2ccc(NC(=O)CCCCC[Se]C#N)cc2)=C3c2ccc(O)cc2)cc1` (stereo not given), the RBA in data set [1] worked out at 2.31%; in data set [2] it was 0.05%. In [3], the Selectivity ratio was determined as 46.2. Also, the half-maximal inhibitory concentration (IC50) in data set [4] was 0.25 µM; in data set [5] it was 5.3 µM; in data set [8], 3.73 µM; in data set [9], 3.96 µM; in data set [10] it was 3.06 µM. Also, the IC50 at 72 h in [6] came out at 36.7 µM. In addition, in data set [7], the selectivity ratio came to 147. Further, in data set [11], the result was Active.

As for `N#C[Se]CCCCCC(=O)Nc1ccc(C2=C(c3ccc(O)cc3)C3CC(S(=O)(=O)Oc4ccccc4Br)C2O3)cc1` (stereo not given), the RBA in data set [1] turned out to be 2.21%; in data set [2], 0.18%. The Selectivity ratio in data set [3] worked out at 12.3. The results for the IC50 in [4] and in data set [5] were 0.86 µM and 1.71 µM, respectively. Besides, in data set [6], the IC50 at 72 h was 7.55 µM. Moreover, the selectivity ratio in data set [7] was 8.78.

Turning to `N#C[Se]CCCCCC(=O)Nc1ccc(C2=C(c3ccc(O)cc3)C3CC(S(=O)(=O)Oc4ccc(F)cc4)C2O3)cc1` (stereo not given), the RBA is 2.05% in data set [1] and 3.74% in data set [2]. Further, the Selectivity ratio in data set [3] was 0.55. Besides, the figures for the IC50 in data set [4] and in data set [5] were 1.18 µM and 1.43 µM, respectively. In addition, the IC50 at 72 h in data set [6] turned out to be 11.5 µM. In addition, the selectivity ratio in data set [7] came out at 9.75.

Take `COc1ccccc1OS(=O)(=O)C1CC2OC1C(c1ccc(NC(=O)CCCCC[Se]C#N)cc1)=C2c1ccc(O)cc1` (stereo not given): the RBA in data set [1] was 16%; in data set [2] it was 1.29%. The Selectivity ratio in [3] worked out at 12.4. Further, the figures for the IC50 in [4] and in data set [5] were 0.49 µM and 1.8 µM, respectively. Moreover, in [6], the IC50 at 72 h is 7.37 µM. For the same molecule, the selectivity ratio in data set [7] is 15.

`N#C[Se]CCCCCC(=O)Nc1ccc(C2=C(c3ccc(O)cc3)C3CC(S(=O)(=O)Oc4ccc(O)cc4)C2O3)cc1` (stereo not given): the figures for the RBA in [1] and in [2] were 7.83% and 0.73%, respectively. Besides, the Selectivity ratio in data set [3] turned out to be 10.7. In addition, the IC50 is 1.5 µM in data set [4] and 4.98 µM in data set [5]. In data set [6], the IC50 at 72 h worked out at 10.4 µM. Besides, the selectivity ratio in [7] is 6.94.

As to `N#C[Se]CCCCCC(=O)Nc1ccc(C2=C(c3ccc(O)cc3)C3CC(S(=O)(=O)Oc4cccc(Cl)c4)C2O3)cc1` (stereo not given), the values for the RBA in data set [1] and in data set [2] were 4.08% and 0.1%, respectively. Also, the Selectivity ratio in data set [3] amounted to 40.8. Also, the IC50 in [4] amounted to 0.7 µM; in [5], 4.09 µM. In data set [6], the half-maximal inhibitory concentration (IC50) at 72 h stood at 29.7 µM. In addition, the selectivity ratio in data set [7] is 42.4.

Turning to `N#C[Se]CCCCCC(=O)Nc1ccc(C2=C(c3ccc(O)cc3)C3CC(S(=O)(=O)Oc4cccc(O)c4)C2O3)cc1` (stereo not given), the figures for the RBA in [1] and in data set [2] were 14.2% and 0.91%, respectively. Further, the Selectivity ratio in data set [3] is 15.6. Further, the IC50 in data set [4] is 1.29 µM; in data set [5] it was over 31 µM. Moreover, the half-maximal inhibitory concentration (IC50) at 72 h in data set [6] was over 60 µM. The selectivity ratio in data set [7] is over 46.5.
